According to patent US10925855B2, “Compositions comprising water dispersible nanoparticles of a retinoid compound” (GALDERMA RESEARCH & DEVELOPMENT, priority 2015, dated 2021):
≈ marks a conversion by molar mass, not a printed value.

Legend:
Type in all cases: physicochemical
[1] = Solvent screening (solubility of compound A); conditions: for solubility: thermodynamic from solid, Sonication
Method: 10-20 mg of 3″-tert-butyl-4′-(2-hydroxyethoxy)-4″-pyrrolidin-1-yl[1,1′;3′,1″]-terphenyl-4-carboxylic acid (hereinafter “compound A”) was placed into a 30 ml vial. 200 μl of the selected solvent was added and the vial was stirred by magnetic stirring. • If the compound A was not dissolved, the vial was placed into ultrasonic bath with mild heating. • If the compound A was still not dissolved, further 200 μl of the solvent was added to the vial and the magnetic stirring and ultrasonication were repeated.
The whole procedure (addition of the solvent, stirring, ultrasonication, heating) was repeated stepwise until every compound A particles was dissolved and a clear, translucent liquid was obtained.

[2] = Precipitation test; conditions: every tested organic solvent at 1 mg/mL concentration
Method: 1 mg/ml solutions of compound A were prepared in each appropriate solvent.

[3] = Chemical stability by HPLC
Method: Chemical stability of nanosized compound A formulae were investigated by HPLC measurements. They were performed in an Agilent 1100 HPLC waters coupled with ZQ2000 MSD, C18, Phenomenex Gemini-NX 3 micron, 100×3 mm column.

solubility profile (in words) ([1]; acetone): slightly soluble
solubility profile (in words) ([1]; acetonitrile): very slightly soluble
solubility profile (in words) ([1]; ethanol): slightly soluble
solubility profile (in words) ([1]; isopropanol): slightly soluble
solubility profile (in words) ([1]; methanol): slightly soluble
solubility ([1]; organic solvent or mixture, Acetone, RT): 3000 µg/mL (≈ 6.53 mM)
solubility ([1]; organic solvent or mixture, Acetonitrile, RT): 400 µg/mL (≈ 0.87 mM)
solubility ([1]; organic solvent or mixture, Ethanol, RT): 4900 µg/mL (≈ 10.7 mM)
solubility ([1]; organic solvent or mixture, Isopropanol, RT): 3000 µg/mL (≈ 6.53 mM)
solubility ([1]; organic solvent or mixture, Methanol, RT): 1700 µg/mL (≈ 3.7 mM)
solubility ([1]; organic solvent or mixture, Pyridine, RT): 34500 µg/mL (≈ 75.1 mM)
solubility ([1]; organic solvent or mixture, Tetrahydrofuran, RT): 30500 µg/mL (≈ 66.4 mM)
solubility profile (in words) ([1]; pyridine): soluble
solubility profile (in words) ([1]; tetrahydrofuran): soluble
solubility ([1]; Water, T = 45° C.): < 50 µg/mL
solubility profile (in words) ([1]; water): practically insoluble
precipitation on addition of anti-solvent [2]: precipitated
decomposition of the active ingredient in HPLC analysis ([3]; 0.1 M sodium hydroxide used as antisolvent (data not shown)): Significant decomposition
Structure (SMILES): CC(C)(C)c1cc(-c2cc(-c3ccc(C(=O)O)cc3)ccc2OCCO)ccc1N1CCCC1 [Compound A, 3″-tert-butyl-4′-(2-hydroxyethoxy)-4″-pyrrolidin-1-yl[1,1′;3′,1″]-terphenyl-4-carboxylic acid]
decomposition of the active ingredient in HPLC analysis ([3]; 0.001 M sodium hydroxide solution as antisolvent): decomposition of the active could not be observed
decomposition of the active ingredient in HPLC analysis ([3]; 0.01 M sodium hydroxide solution as antisolvent): decomposition of the active could not be observed
